Some results are limits rather than exact numbers.

Phosphatidylinositol 4,5-bisphosphate 3-kinase catalytic subunit alpha isoform, sequence (P42336 whole entry, canonical isoform): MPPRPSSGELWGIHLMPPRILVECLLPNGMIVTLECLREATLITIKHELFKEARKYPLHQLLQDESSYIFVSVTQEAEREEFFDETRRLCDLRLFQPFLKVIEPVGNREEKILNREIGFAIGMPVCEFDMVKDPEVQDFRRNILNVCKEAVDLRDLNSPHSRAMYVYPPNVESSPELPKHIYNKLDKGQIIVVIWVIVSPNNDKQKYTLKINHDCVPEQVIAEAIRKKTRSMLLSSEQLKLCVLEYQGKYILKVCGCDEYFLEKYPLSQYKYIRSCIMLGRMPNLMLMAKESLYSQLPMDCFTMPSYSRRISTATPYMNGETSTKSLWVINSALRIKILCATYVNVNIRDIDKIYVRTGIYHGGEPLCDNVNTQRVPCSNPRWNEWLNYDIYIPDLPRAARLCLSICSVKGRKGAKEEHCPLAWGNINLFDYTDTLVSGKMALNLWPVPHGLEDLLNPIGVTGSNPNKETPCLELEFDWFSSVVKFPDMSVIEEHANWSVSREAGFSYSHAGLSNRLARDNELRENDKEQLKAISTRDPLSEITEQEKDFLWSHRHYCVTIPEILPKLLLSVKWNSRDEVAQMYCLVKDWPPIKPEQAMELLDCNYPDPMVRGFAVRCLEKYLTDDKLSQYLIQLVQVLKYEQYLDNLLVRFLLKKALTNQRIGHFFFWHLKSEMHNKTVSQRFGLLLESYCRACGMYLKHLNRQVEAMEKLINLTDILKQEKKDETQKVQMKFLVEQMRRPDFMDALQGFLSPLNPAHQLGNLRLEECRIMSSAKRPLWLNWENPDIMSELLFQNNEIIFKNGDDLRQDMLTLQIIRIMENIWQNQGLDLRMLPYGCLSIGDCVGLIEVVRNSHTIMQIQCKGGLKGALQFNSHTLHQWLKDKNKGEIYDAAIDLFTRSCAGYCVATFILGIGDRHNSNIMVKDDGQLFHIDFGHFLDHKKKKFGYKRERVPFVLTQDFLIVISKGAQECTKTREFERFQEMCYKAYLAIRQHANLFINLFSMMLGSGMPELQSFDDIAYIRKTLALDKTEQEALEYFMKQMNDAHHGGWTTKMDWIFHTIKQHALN
Phosphatidylinositol 4,5-bisphosphate 3-kinase catalytic subunit beta isoform, sequence (P42338 whole entry, canonical isoform): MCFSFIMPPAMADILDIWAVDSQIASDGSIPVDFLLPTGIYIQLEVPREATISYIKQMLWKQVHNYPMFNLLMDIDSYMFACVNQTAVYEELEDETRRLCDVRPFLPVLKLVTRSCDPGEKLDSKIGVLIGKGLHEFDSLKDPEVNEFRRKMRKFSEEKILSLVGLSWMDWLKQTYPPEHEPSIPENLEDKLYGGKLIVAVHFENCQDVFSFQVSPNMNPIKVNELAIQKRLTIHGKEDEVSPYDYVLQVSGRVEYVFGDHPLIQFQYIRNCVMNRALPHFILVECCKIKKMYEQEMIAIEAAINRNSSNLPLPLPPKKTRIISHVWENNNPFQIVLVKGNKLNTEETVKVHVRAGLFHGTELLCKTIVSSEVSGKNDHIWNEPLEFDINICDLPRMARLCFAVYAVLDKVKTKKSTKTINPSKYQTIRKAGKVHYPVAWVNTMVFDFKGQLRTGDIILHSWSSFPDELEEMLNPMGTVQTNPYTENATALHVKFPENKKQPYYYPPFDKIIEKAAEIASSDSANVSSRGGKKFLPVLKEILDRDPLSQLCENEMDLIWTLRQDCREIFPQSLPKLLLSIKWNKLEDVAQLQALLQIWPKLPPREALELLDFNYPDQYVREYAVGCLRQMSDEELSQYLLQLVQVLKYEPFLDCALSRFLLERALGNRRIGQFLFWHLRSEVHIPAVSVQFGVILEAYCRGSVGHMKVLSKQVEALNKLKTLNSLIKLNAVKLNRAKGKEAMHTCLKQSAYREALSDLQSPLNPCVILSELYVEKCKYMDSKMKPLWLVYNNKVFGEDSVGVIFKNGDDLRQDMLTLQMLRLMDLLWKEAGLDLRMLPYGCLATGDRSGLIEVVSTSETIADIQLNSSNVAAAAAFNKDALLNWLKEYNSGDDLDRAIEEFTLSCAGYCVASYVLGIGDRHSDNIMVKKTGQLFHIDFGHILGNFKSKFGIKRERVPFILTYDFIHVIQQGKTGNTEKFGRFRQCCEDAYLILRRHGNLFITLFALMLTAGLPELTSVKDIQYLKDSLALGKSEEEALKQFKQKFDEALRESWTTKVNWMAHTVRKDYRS

One experiment addresses Phosphatidylinositol 4,5-bisphosphate 3-kinase catalytic subunit alpha isoform (Homo sapiens, UniProt P42336). As to the kind of experiment: Kinase Assay. The text has this:
(§1) Kinase assay using PI3K.
The term IC50 denotes the concentration needed to halve the response being measured. Lower therefore signals greater potency in that assay. In turn, `COc1cccc(Nc2nc(N3CCOCC3)nc3c2cnn3C)c1` yielded a concentration for half-maximal inhibition (IC50) of 0.4 µM.
As for `CN1CCN(c2nc(Nc3cccc(Cl)c3)c3cnn(C)c3n2)CC1` [ETP-5935], half-maximal inhibition (IC50) required 4.9 µM.
`CC1CN(c2nc(Nc3ccccc3)c3cnn(C)c3n2)CC(C)O1` (stereo unspecified) [ETP-6531]: half-maximal inhibition (IC50) was put at 12.6 µM.
`COc1cccc(Nc2nc(N3CCN(C)CC3)nc3c2cnn3C)c1` [ETP-7146] displayed an IC50 of 9.2 µM.
Same read-out and setting: as for `COc1cccc(Nc2nc(N3CCN(CCO)CC3)nc3c2cnn3C)c1` [ETP-8162], the figure is 12.6 µM; as for `Cn1ncc2c(OCc3ccccc3)nc(N3CCOCC3)nc21` [ETP-45415, 3a], 35.1 µM; as for `Cn1ncc2c(NCc3ccccc3)nc(N3CCOCC3)nc21` [ETP-45416, 3b], 36.8 µM.
With `Cn1ncc2c(Oc3ccc(Cl)cc3)nc(N3CCOCC3)nc21` [ETP-45419, 3d], the IC50 amounted to 5.51 µM.
Molecule `Cn1ncc2c(SCc3ccccc3)nc(N3CCOCC3)nc21` [ETP-45654, 3c] showed an IC50 of more than 50 µM.
The same measure, in the same setting: the result for `Cn1ncc2c(=O)[nH]c(N3CCOCC3)nc21` [ETP-45700, 6] reads more than 50 µM; that for `CC(C)Oc1nc(N2CCOCC2)nc2c1cnn2C` [ETP-45797, 7], 16.1 µM.
`Cn1ncc2c(-c3cccc(O)c3)nc(N3CCOCC3)nc21` [ETP-45798, 9] displayed an IC50 of 0.114 µM.
The molecule `Cn1ncc2c(-c3cccc(NS(C)(=O)=O)c3)nc(N3CCOCC3)nc21` [ETP-45799, 10] gave an IC50 of 1.66 µM.
Still for that read-out and setting: the result for `COC(=O)c1cccc(-c2nc(N3CCOCC3)c3cnn(C)c3n2)c1` [ETP-45867, 14] reads 0.84 µM; that for `COc1cccc(-c2nc(N3CCOCC3)c3cnn(C)c3n2)c1` [ETP-45871, 15], 5.8 µM.
For `Cc1cccc(Oc2nc(N3CCOCC3)nc3c2cnn3C)c1` [ETP-45874, 11], 0.97 µM corresponded to half-maximal inhibition (IC50).
`CSc1cccc(-c2nc(N3CCOCC3)c3cnn(C)c3n2)c1` [ETP-45875, 16] registered an IC50 of 3.53 µM. Compared with the last molecule, the IC50 is about 3.6-fold higher.
Same read-out and setting: the result for `CC(=O)Nc1cccc(-c2nc(N3CCOCC3)c3cnn(C)c3n2)c1` [ETP-45876, 17] reads 7 µM.

A further experiment concerns the target Phosphatidylinositol 4,5-bisphosphate 3-kinase catalytic subunit beta isoform (Homo sapiens, UniProt P42338). Put plainly: Kinase Assay.
Text: as §1
As for `Cn1ncc2c(N3CCOCC3)nc(-c3cccc(O)c3)nc21` [ETP-45658, 13], half-maximal inhibition (IC50) was put at 0.129 µM.

For the next experiment, the target named is T1, Phosphatidylinositol 4,5-bisphosphate 3-kinase catalytic subunit delta isoform (Homo sapiens, UniProt O00329).
T1 sequence (O00329 whole entry): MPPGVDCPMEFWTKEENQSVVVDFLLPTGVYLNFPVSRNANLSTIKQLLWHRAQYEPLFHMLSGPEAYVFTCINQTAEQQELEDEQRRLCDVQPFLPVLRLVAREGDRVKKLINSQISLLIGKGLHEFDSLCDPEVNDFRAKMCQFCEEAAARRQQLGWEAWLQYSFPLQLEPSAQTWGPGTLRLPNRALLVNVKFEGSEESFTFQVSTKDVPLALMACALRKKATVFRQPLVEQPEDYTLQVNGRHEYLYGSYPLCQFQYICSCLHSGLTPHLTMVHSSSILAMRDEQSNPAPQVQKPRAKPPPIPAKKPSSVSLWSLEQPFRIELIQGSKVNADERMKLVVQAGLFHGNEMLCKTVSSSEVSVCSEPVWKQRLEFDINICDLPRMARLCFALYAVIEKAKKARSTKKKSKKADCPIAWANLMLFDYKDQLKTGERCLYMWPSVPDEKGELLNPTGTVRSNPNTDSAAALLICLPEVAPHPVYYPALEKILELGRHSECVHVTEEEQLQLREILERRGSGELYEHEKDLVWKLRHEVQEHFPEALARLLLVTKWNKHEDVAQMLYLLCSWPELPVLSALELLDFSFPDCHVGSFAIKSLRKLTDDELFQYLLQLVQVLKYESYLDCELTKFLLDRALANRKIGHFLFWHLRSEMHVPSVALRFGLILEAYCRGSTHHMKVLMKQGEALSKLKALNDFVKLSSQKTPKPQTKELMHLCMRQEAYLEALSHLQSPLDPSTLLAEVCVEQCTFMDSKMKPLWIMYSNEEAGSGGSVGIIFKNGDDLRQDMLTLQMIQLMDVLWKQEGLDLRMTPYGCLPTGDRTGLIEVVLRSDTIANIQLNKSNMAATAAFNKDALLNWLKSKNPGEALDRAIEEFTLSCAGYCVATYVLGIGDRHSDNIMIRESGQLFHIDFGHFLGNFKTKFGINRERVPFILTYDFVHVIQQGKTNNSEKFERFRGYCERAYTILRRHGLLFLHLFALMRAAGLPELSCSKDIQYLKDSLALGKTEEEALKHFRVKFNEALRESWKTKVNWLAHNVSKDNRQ
As to the kind of experiment: Kinase Assay.
Text: as §1
Turning to `Cn1ncc2c(N3CCOCC3)nc(-c3cccc(O)c3)nc21` [ETP-45658, 13], the IC50 is 0.03 µM.

The target in another experiment is Phosphatidylinositol 4,5-bisphosphate 3-kinase catalytic subunit gamma isoform (Homo sapiens, UniProt P48736). Put plainly: Kinase Assay.
Phosphatidylinositol 4,5-bisphosphate 3-kinase catalytic subunit gamma isoform, sequence (P48736 whole entry, canonical isoform): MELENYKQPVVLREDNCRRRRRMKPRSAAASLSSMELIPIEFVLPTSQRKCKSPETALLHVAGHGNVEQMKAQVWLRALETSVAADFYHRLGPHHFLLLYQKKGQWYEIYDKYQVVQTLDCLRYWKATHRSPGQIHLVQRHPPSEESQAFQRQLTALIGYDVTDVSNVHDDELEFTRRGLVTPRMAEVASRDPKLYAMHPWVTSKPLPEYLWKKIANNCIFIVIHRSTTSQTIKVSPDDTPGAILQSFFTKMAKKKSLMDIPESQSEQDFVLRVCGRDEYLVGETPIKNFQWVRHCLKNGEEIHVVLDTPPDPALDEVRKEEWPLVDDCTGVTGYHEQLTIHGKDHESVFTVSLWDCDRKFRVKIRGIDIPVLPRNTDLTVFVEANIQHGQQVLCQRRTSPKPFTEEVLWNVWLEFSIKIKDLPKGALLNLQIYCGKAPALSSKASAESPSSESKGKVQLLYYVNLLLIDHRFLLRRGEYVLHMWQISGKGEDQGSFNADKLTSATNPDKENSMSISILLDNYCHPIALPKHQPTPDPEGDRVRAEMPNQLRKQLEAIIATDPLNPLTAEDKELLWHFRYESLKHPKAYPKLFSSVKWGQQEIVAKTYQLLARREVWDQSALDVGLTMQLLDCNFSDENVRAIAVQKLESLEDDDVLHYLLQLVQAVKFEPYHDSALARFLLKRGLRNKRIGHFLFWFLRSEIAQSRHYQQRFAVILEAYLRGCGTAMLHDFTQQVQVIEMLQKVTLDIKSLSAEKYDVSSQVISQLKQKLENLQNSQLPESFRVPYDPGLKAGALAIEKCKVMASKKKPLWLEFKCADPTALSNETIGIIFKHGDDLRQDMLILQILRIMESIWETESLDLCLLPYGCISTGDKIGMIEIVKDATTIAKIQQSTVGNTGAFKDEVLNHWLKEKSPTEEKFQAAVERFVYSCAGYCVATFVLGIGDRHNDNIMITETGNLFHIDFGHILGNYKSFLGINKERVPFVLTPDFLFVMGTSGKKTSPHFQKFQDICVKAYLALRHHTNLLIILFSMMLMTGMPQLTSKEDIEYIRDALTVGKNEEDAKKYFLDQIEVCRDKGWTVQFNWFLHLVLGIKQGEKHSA
Text: as §1
With `Cn1ncc2c(N3CCOCC3)nc(-c3cccc(O)c3)nc21` [ETP-45658, 13], the midpoint of inhibition, the IC50, lay at 0.717 µM.

These data come from BindingDB's records for doi:10.1074/jbc.M109.038984 (Spanish National Cancer Research Center (Cnio), 2009).
